From patent US4720458A, “Heat sensitive bacterial alkaline phosphatase” (priority 1983, dated 1988)
pIC50: −log10 of the molar value.

Columns and labels:
[1] = biological target: E. coli alkaline phosphatase (APase) (Escherichia coli, UniProt P00634); assay: E. coli APase inactivation by EDTA (comparison enzyme); type: biochemical; conditions: read-out: EDTA concentration giving 50% inactivation of E. coli APase
[2] = system: HK-47 alkaline phosphatase (APase) from Antarctic psychrophilic marine bacterium strain HK-47 (ATCC 39469)
Experimental: APase activity was routinely assayed at 25° C. for 30 min in 100 μl reaction mixture containing 2 mM p-nitrophenyl phosphate, 5 mM CaCl2, 0.1M CAPS-NaOH buffer pH 9.5. The reaction was stopped by adding 300 μl of 13% (W/V) EDTA-1N NaOH to the reaction mixture. Control mixtures were similarly prepared, except that 13% EDTA-1N NaOH was added before the enzyme activity was assayed. APase activity was measured as the difference in absorbance at 410 nm between samples and control. One unit of APase activity is expressed as 1 micromole of p-nitrophenol (pNp) liberated per minute at 25° C. under the assay conditions. Protein concentration was determined by the Bio-Rad protein assay kit. Bovine serum albumin (BSA) was used as the standard. Homogeneity of the APase was examined by polyacrylamide gel electrophoresis and Bio-Rad (Bio-Rad laboratories, Richmond, CA.) silver stain.

E. coli alkaline phosphatase (APase), sequence (P00634 22-471): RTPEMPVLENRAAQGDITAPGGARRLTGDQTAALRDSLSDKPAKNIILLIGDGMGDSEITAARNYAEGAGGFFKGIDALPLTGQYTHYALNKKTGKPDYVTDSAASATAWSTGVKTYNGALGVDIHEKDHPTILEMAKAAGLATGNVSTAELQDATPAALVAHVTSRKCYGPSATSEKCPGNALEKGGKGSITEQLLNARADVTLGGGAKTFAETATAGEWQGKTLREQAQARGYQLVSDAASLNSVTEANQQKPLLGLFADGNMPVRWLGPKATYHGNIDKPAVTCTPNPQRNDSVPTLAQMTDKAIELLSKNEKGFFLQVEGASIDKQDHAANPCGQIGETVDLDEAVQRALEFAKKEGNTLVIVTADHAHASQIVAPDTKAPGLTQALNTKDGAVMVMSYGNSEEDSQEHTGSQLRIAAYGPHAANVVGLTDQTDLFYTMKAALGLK

O=C(O)CN(CCN(CC(=O)O)CC(=O)O)CC(=O)O [EDTA]
pIC50 [1]: 2.00
inhibition of HK-47 APase activity ([2]; at 1 mM EDTA): ~100%
sensitivity to EDTA of HK-47 APase relative to E. coli APase ([2]; ratio of the 50% inhibition concentrations, E. coli vs HK-47): 100 fold
pIC50 ([2]; read-out: EDTA concentration inhibiting HK-47 APase activity 50%, HK-47 APase, 'as little as'): 4.00
